Measurements as given in US20070203224A1, “SMALL-MOLECULES FOR TREATING CANCER AND ABNORMAL CELL PROLIFERATION DISORDERS” (University of Southern California, priority 2006, published 2007).

Tests used:
HCT116p53+/+ cells = test: Cell cycle analysis by propidium iodide DNA staining; type: cell-based, human; details: 1 μM
Method: Cell cycle perturbations induced by the representative compounds were analyzed by propidium iodide DNA staining. […] At the end of each treatment time, cells were collected and washed with PBS after a gentle centrifugation at 200×g for 5 minutes. Cells were thoroughly resuspended in 0.5 mL of PBS and fixed in 70% ethanol for at least 2 hours at 4° C. Ethanol-suspended cells were then centrifuged at 200×g for 5 minutes and washed twice in PBS to remove residual ethanol. For cell cycle analysis, the pellets were suspended in 1 mL of PBS containing 0.02 mg/mL of propidiumiodide, 0.5 mg/mL of DNase-free RNase A and 0.1% of Triton X-100 and incubated at 37° C. for 30 minutes. Cell cycle profiles were obtained using a FACScan flowcytometer (Becton Dickinson, San Jose, Calif.) and data were analyzed by ModFit LT software (Verity Software House, Inc., Topsham, Me.).

[1] = system: HCTp53−/− (p53 negative) colon cancer cells; test: MTT assay (cytotoxicity); type: cell-based; details: Homo sapiens, 72 hours exposure, read-out: Anticancer Activity (IC50)
Method: (§1) The cytotoxicity of the several representative compounds have been evaluated using MTT assay. Briefly, cells were seeded in 96-well microtiter plates (HCT16 p53+/+ (wild type), HCTp53−/− (p53 negative) colon cancer cells and MD-MBA-435 (p53 mutant) breast cancer cells at 4,000 cells/well) and allowed to attach. Cells were subsequently treated with a continuous exposure to the corresponding drug for 72 hours. A 3-(4,5-dimethylthiazol-2-yl)-2,5-diphenyltetrazolium bromide solution (at a final concentration of 0.5 mg/mL) was added to each well, and cells were incubated for 4 hours at 37° C. After removal of the medium, DMSO was added and the absorbance was read at 570 nm. All assays were done in triplicate. The IC50 was then determined for each drug from a plot of log (drug concentration) versus percentage of cell kill.

[2] = system: MD-MBA-435 (p53 mutant) breast cancer cells; test: MTT assay (cytotoxicity); type: cell-based; details: Homo sapiens, 72 hours exposure, read-out: Anticancer Activity (IC50)
Method: as §1

MCF7 breast cells = test: MTT assay (cytotoxicity); type: cell-based; details: Homo sapiens, read-out: Anticancer Activity (IC50)
Method: [The procedure below names another cell line; the source lists this cell line under the same test.] as §1

[3] = system: NIH3T3 mouse fibroblast cells; test: MTT assay (cytotoxicity); type: cell-based; details: read-out: Anticancer Activity (IC50)
Method: [The procedure below names another organism; the source lists this organism under the same test.] as §1

[4] = system: HCT16 p53+/+ (wild type) colon cancer cells; test: MTT assay (cytotoxicity); type: cell-based; details: Homo sapiens, 72 hours exposure, read-out: Anticancer Activity (IC50)
Method: as §1

[5] = system: NIH 189 mouse fibroblast cells; test: MTT assay (cytotoxicity); type: cell-based; details: read-out: Anticancer Activity (IC50)
Method: [The procedure below names another organism; the source lists this organism under the same test.] as §1

MDA-MB-435 cells = test: Drug treatment of tumor xenografts in athymic nude mice; type: in vivo
Method: 50 male athymic nude (nu/nu) mice (Charles River Laboratories, Wilmington, USA) were used for in vivo testing. The animals were fed ad libitum and kept in air-conditioned rooms at 20±2° C. with a 12 h light-dark period. Animal care and manipulation were in agreement with the University of Southern California (USC) institutional guidelines, which are in accordance with the Guidelines for the Care and Use of Laboratory Animals.
MDA-MB-435 cells from in vitro cell culture were inoculated s.c. in both flanks of athymic nude mice (2×10^6 cells/flank) under aseptic conditions. Tumor growth was assessed by biweekly measurement of tumor diameters with a Vernier caliper (length×width). Tumor weight was calculated according to the formula: TW (mg)=tumor volume (mm^3)=d^2×D/2, where d and D are the shortest and longest diameters, respectively. Cells were allowed to grow to an average volume of 100 mm^3. Animals were then randomly assigned for control and treatment groups to receive control vehicle or CT19 (10 and 20 mg/kg, dissolved in sesame oil) via i.p. injections once a day for 5 days. Treatment of each animal was based on individual body weight. After 5-day treatment, the tumor volumes in each group were measured once a week for four weeks. Treated animals were checked daily for treatment toxicity/mortality.
Assays were set up in triplicates and the results were expressed as means±SD. Statistical analysis and P-value determination were done by two-tailed paired t test with a confidence interval of 95% for determination of the significance differences between treatment groups. P<0.05 were considered to be significant. ANOVA was used to test for significance among groups. The SAS statistical software package (SAS institute) was used for statistical analysis.
The in vivo efficacy of CT19 was evaluated in nude mice inoculated with human breast MDA-MB-435 cells. Animals were treated with a daily i.p. injections of saline (controls) and CT19 at 10 mg/kg or 20 mg/kg. After five-days of dosing, the drug treatment was discontinued and the animals were monitored […].

[6] = system: panel of human cancer cell lines; test: Anticancer activity in a panel of human cancer cell lines; type: cell-based; details: result in words
Method: Anticancer activities and cell cycle perturbations induced by a number of representative compounds have been evaluated using MTT and cell cycle analysis assays.
as §1

[7] = 10 mg/kg or 20 mg/kg daily i.p. for five days

Row | Compound | IC50 [1] | IC50 [2] | IC50 (MCF7 breast cells) | IC50 [4] | other results
1 | C=C1C(=O)O[C@@H](c2ccccc2)C1c1ccccc1 (stereo in doubt) [CT14, (4S,5R)-3-methylene-4,5-diphenyl-dihydrofuran-2(3H)-one] | 8 ± 1 µM | 2 ± 2 µM | 2 µM | 2 ± 1 µM | G2/M arrest (HCT116p53+/+ cells): approximately 75%; % cells in G0/G1 (HCT116p53+/+ cells; after 12 h): 11.9%; % cells in G2/M (HCT116p53+/+ cells; after 12 h): 75.8%; % cells in S (HCT116p53+/+ cells; after 12 h): 12.4%; % cells in G0/G1 (HCT116p53+/+ cells; after 24 h): 12.6%; % cells in G2/M (HCT116p53+/+ cells; after 24 h): 74.5%; % cells in S (HCT116p53+/+ cells; after 24 h): 12.8%; IC50 [3]: 2 µM; IC50 [5]: 1 µM
2 | C=C(C(=O)OC)[C@H](c1ccccc1)[C@@H](O)c1ccc(C#N)cc1 (stereo in doubt) [CT21, (3S,4R)-methyl 4-(4-cyanophenyl)-4-hydroxy-2-methylene-3-phenylbutanoate] | 13 ± 2 µM | 8 ± 2 µM | 3 µM | 2 ± 1 µM | 
3 | C=C1C(=O)O[C@@H](c2ccccc2)[C@@H]1C [CT10] | 23 ± 2 µM | 5 ± 3 µM |  | 1 ± 1 µM | 
4 | C=C1C(=O)O[C@@H](c2ccc([N+](=O)[O-])cc2)[C@H]1c1ccc(OC)cc1 [CT11] | 9 ± 5 µM | 2 ± 2 µM | 3 µM | 2 ± 1 µM | 
5 | C=C1C(=O)O[C@@H](c2ccc([N+](=O)[O-])cc2)[C@@H]1c1ccc(C)cc1 [CT12] | 7 ± 5 µM | 3 ± 2 µM | 6 µM | 4 ± 1 µM | 
6 | C=C1C(=O)O[C@@H](c2ccccc2)[C@H]1c1ccccc1 [CT13, (4S,5R)-3-methylene-4,5-diphenyl-dihydrofuran-2(3H)-one] | 11 ± 2 µM | 2 ± 2 µM |  | 3 ± 3 µM | 
7 | C=C1C(=O)O[C@@H](c2ccc([N+](=O)[O-])cc2)[C@H]1c1ccc(C)cc1 [CT15] | > 20 µM | > 20 µM |  | > 20 µM | 
8 | C=C1C(=O)O[C@@H](c2ccc([N+](=O)[O-])cc2)[C@H]1c1ccc(Cl)cc1 [CT16] | 18 ± 1 µM | 3 ± 2 µM | < 1 µM | 4 ± 2 µM | 
9 | C=C1C(=O)O[C@@H](c2cc(OC)c(OC)c(OC)c2-c2cc(OC)c(OC)c(OC)c2)[C@H]1C [CT19] | 4 µM | 5 µM | 4 µM | 1 ± 1 µM | Apparent toxicity (MDA-MB-435 cells; [7]): without apparent toxicity; Tolerability (MDA-MB-435 cells; [7]): well tolerated; Tumor burden in breast xenografts (MDA-MB-435 cells; [7]): significantly reduced tumor burden; Tumor growth (tumor weight) (MDA-MB-435 cells; 20 mg/kg daily i.p. for five days, monitored five weeks, p<0.05): significantly reduced tumor growth
10 | COc1cc(-c2c(C3OC(=O)C(C)=C3C)cc(OC)c(OC)c2OC)cc(OC)c1OC (stereo not shown) [CT20] | > 20 µM | > 20 µM | > 20 µM | 3 µM | 
11 | C=C(C(=O)OC)[C@@H](c1ccccc1)[C@H](O)c1ccc([N+](=O)[O-])cc1 [CT22] | 12 ± 4 µM | 7 ± 5 µM | 3 µM | 1 ± 1 µM | IC50 [3]: 3.5 µM; IC50 [5]: 3 µM
12 | COC(=O)/C(=C/c1ccccc1)CS(=O)(=O)c1ccc(C)cc1 [CT23, (Z)-methyl 3-phenyl-2-(tosylmethyl)acrylate] | 5 µM | 6 ± 3 µM | 15 µM | 2 ± 2 µM | Anticancer activity in a panel of human cancer cell lines [6]: potent anticancer activity at low micromolar concentration
